{"source": "paper PMC4412152", "about": "“Human olfactory receptor responses to odorants” (Scientific Data, 2015)", "assay_in_all_cases": "CRE-luciferase cAMP reporter (Dual-Glo), Hana3A cells", "type_in_all_cases": "cell-based", "key": {"OR8D1": {"molecular_target": "T1, OR8D1 (Homo sapiens, UniProt Q8WZ84)", "T1 construct": "full-length ORF with N-terminal Rho tag, pCI, Hana3A cells with RTP1S", "T1 sequence (Q8WZ84 1-308)": "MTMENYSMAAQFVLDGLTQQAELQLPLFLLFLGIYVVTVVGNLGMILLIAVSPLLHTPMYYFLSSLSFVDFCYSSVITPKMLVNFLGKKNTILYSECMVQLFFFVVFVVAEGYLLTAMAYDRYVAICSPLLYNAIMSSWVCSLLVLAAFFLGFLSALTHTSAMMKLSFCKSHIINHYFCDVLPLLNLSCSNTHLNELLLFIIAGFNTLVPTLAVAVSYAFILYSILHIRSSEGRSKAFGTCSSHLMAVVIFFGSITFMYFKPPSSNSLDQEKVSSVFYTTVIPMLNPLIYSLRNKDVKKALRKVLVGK", "details": "agonist; rounded to whole log unit", "description": "CRE-luciferase cAMP reporter (Dual-Glo), Hana3A cells on OR8D1"}, "OR10G4": {"molecular_target": "T2, OR10G4 (Homo sapiens, UniProt Q8NGN3, K295Q)", "T2 construct": "full-length ORF with N-terminal Rho tag, pCI, Hana3A cells with RTP1S; two clones with the same label", "T2 sequence (Q8NGN3 1-311 K295Q)": "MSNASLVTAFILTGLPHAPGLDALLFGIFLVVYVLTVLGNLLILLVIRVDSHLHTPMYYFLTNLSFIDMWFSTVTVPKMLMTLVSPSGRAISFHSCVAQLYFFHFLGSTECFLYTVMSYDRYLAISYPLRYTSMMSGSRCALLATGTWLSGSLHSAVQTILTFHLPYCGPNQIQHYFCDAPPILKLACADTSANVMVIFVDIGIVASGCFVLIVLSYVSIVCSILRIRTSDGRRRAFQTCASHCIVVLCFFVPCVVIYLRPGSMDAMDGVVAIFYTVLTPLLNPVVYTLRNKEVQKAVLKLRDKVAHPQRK", "description": "CRE-luciferase cAMP reporter (Dual-Glo), Hana3A cells on OR10G4"}, "OR2T1 [1]": {"molecular_target": "T3, OR2T1 (Homo sapiens, UniProt A0A126GWK9)", "T3 construct": "full-length ORF with N-terminal Rho tag, pCI, Hana3A cells with RTP1S; two clones with the same label", "T3 sequence (A0A126GWK9 1-318)": "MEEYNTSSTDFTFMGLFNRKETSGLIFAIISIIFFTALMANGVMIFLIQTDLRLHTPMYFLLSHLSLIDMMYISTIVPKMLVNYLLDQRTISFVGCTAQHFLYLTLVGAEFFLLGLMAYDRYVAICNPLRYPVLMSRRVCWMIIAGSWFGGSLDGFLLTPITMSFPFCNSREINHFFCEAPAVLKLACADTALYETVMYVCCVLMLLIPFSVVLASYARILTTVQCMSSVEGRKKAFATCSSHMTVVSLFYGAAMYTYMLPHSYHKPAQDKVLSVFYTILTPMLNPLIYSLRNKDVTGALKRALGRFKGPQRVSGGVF", "description": "(§1) CRE-luciferase cAMP reporter (Dual-Glo), Hana3A cells on OR2T1"}, "OR2T1 [2]": {"molecular_target": "T4, OR2T1 (Homo sapiens, UniProt A0A126GWK9, I76V)", "T4 construct": "full-length ORF with N-terminal Rho tag, pCI, Hana3A cells with RTP1S; two clones with the same label", "T4 sequence (A0A126GWK9 1-318 I76V)": "T3 sequence (A0A126GWK9 1-318) with I76V", "description": "as §1"}, "OR56A4": {"molecular_target": "T5, OR56A4 (Homo sapiens, UniProt Q8NGH8)", "T5 construct": "full-length ORF with N-terminal Rho tag, pCI, Hana3A cells with RTP1S", "T5 sequence (Q8NGH8 1-313)": "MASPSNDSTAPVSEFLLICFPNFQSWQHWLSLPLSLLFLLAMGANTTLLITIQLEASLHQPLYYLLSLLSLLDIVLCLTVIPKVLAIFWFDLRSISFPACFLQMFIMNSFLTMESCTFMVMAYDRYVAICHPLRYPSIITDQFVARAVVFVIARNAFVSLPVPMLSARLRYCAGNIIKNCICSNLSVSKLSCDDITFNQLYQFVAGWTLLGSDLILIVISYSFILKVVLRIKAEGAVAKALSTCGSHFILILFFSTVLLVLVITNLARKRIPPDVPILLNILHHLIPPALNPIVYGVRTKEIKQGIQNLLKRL", "description": "CRE-luciferase cAMP reporter (Dual-Glo), Hana3A cells on OR56A4"}, "OR2J3": {"molecular_target": "T6, OR2J3 (Homo sapiens, UniProt O76001)", "T6 construct": "full-length ORF with N-terminal Rho tag, pCI, Hana3A cells with RTP1S; four clones with the same label", "T6 sequence (O76001 1-311)": "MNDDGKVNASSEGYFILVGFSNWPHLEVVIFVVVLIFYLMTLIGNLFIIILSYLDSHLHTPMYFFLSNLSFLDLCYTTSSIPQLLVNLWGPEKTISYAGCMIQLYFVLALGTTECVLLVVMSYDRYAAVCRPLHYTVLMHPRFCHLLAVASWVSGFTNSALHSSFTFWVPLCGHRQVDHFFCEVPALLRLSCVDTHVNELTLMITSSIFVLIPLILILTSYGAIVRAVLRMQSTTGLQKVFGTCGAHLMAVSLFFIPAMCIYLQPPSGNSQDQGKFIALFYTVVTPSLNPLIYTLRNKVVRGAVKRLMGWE", "description": "CRE-luciferase cAMP reporter (Dual-Glo), Hana3A cells on OR2J3"}, "OR4F17": {"molecular_target": "T7, OR4F17 (Homo sapiens, UniProt Q8NGA8)", "T7 construct": "full-length ORF with N-terminal Rho tag, pCI, Hana3A cells with RTP1S", "T7 sequence (Q8NGA8 1-305)": "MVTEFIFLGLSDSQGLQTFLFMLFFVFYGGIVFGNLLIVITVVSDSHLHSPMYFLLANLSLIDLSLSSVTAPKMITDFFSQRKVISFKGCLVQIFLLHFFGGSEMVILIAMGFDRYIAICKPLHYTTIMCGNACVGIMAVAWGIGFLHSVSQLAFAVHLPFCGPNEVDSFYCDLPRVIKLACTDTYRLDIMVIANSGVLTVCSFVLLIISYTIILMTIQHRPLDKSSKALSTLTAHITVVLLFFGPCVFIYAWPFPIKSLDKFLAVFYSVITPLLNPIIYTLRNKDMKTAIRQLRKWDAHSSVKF", "description": "CRE-luciferase cAMP reporter (Dual-Glo), Hana3A cells on OR4F17"}}, "note": "Where a chain is given by its changes, count along the chain named.", "data": [{"molecule": "caramel furanone [compound 1396]", "values": [{"measurement": "EC50", "setting": "OR8D1", "result": "−5", "unit": "log10 M"}]}, {"molecule": "COc1cc(C=O)ccc1O", "note": "[compound 1346, vanillin]", "values": [{"measurement": "EC50", "setting": "OR10G4", "result": 10, "unit": "µM"}]}, {"molecule": "CCCC(=O)O", "note": "[compound 1295, butyric acid]", "values": [{"measurement": "EC50", "setting": "OR2T1 [1]", "result": 100, "unit": "µM"}, {"measurement": "EC50", "setting": "OR2T1 [2]", "result": 100, "unit": "µM"}]}, {"molecule": "CCCCCCCCCCC=O", "note": "[compound 1345, undecanal]", "values": [{"measurement": "EC50", "setting": "OR56A4", "result": 0.1, "unit": "µM"}]}, {"molecule": "CC/C=C\\CCO", "note": "[compound 1300, cis-3-hexen-1-ol]", "values": [{"measurement": "EC50", "setting": "OR2J3", "result": 10, "unit": "µM"}]}, {"molecule": "CCCCCOC(C)=O", "note": "[compound 1078, n-amyl acetate]", "values": [{"measurement": "EC50", "setting": "OR2J3", "result": 1, "unit": "µM"}]}, {"molecule": "C[C@]12CCC(=O)C[C@@H]1CC[C@@H]1[C@@H]2CC[C@]2(C)C=CC[C@@H]12", "note": "[compound 1290, 5α-androst-16-en-3-one]", "values": [{"measurement": "EC50", "setting": "OR4F17", "result": 1000, "unit": "µM"}]}, {"molecule": "CC(=O)OC/C=C(\\C)CCC=C(C)C", "note": "[compound 1316, geranyl acetate]", "values": [{"measurement": "EC50", "setting": "OR2J3", "result": 1000, "unit": "µM"}]}]}
